According to patent US20230277654A1, “STABLE FORMULATIONS OF CYTOMEGALOVIRUS” (priority 2017, published 2023):

Columns and labels:
FKBP = conditions: Clackson et al., 1998; cited from earlier work
rdCMV = experiment: Shield-1 dependence of rdCMV replication; format: cell-based, cytomegalovirus; conditions: rdCMV in ARPE-19 cells and other human primary cells
Excerpt: Conversely, rdCMV should not replicate substantially in the absence of Shield-1. The quality of a replication defective mechanism is judged by how stringent the control is under the conditions not permissive for viral replication, i.e., the infectious titers of progeny virions under these conditions. The rdCMV described herein cannot replicate substantially (either in cell culture or within a patient) without Shield-1 present. Its replication in ARPE-19 cells and other types of human primary cells is conditional, and a molar concentration of Shield-1 greater than 0.1 μM, preferable at least 2 μM, in the culture medium is required to sustain viral replication.

CC[C@H](C(=O)N1CCCC[C@H]1C(=O)O[C@H](CCc1ccc(OC)c(OC)c1)c1cccc(OCCN2CCOCC2)c1)c1cc(OC)c(OC)c(OC)c1 [Shield-1]
binding to the F36V derivative compared to wild-type FKBP (tighter) (FKBP): about 1,000 fold | molar concentration in the culture medium required to sustain viral replication (rdCMV): greater than 0.1 μM
